Biological target: T1, human CaMKIIδ (Homo sapiens, UniProt Q13557)
T1 construct: Full-length, glutathione-S-transferase(GST)-tagged, human CaMKIIδ was purchased from Carna Biosciences; purchased Carna Biosciences (CaMKIIδ); Wako Pure Chemical Industries (calmodulin) 02-111
Experiment: Evaluation of in vitro CaMKII inhibitory activity (binding assay, TR-FRET)
Settings: human CaMKIIδ, TR-FRET binding assay; class symbols A/B/C; read-out: Act (CaMKII inhibitory activity, binding assay)
Method in brief: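 Inhibitors, in eight concentrations of 4-fold dilution, were incubated 1 h at room temperature with a protein–fluorescent probe premix preformed 30 min on ice, containing calmodulin and terbium anti-GST antibody. Displacement read by TR-FRET in duplicate; IC50 by logistic fitting.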

SMILES	IC50 [µM]
CC(=O)NCCCNC(=O)c1cccc(-c2cnn3ccc(-c4cccc(O[C@@H](C)Cn5cnnn5)c4)nc23)c1 [compound 102]	< 0.01
CCN(CC)CCNC(=O)c1cccc(-c2cnn3ccc(-c4cccc(O[C@@H](C)Cn5cnnn5)c4)nc23)c1 [compound 103]	< 0.01
C[C@@H](Cn1cnnn1)Oc1cccc(-c2ccn3ncc(-c4cccc(C(=O)NCCCCN(C)C)c4)c3n2)c1 [compound 104]	< 0.01
C[C@@H](Cn1cnnn1)Oc1cccc(-c2ccn3ncc(-c4cccc(C(=O)NCCc5ccccc5)c4)c3n2)c1 [compound 105]	0.01 to 0.1
C[C@@H](Cn1cnnn1)Oc1cccc(-c2ccn3ncc(-c4cccc(C(=O)NCCc5ccccn5)c4)c3n2)c1 [compound 106]	< 0.01
C[C@@H](Cn1cnnn1)Oc1cccc(-c2ccn3ncc(-c4cccc(C(=O)NCCc5ccncc5)c4)c3n2)c1 [compound 107]	< 0.01
C[C@@H](Cn1cnnn1)Oc1cccc(-c2ccn3ncc(-c4cccc(C(=O)NCCc5cccnc5)c4)c3n2)c1 [compound 108]	< 0.01
C[C@@H](Cn1cnnn1)Oc1cccc(-c2ccn3ncc(-c4cccc(C(=O)N5CCn6ccnc6C5)c4)c3n2)c1 [compound 109]	0.01 to 0.1
C[C@@H](Cn1cnnn1)Oc1cccc(-c2ccn3ncc(-c4cccc(C(=O)N5CCn6ncnc6C5)c4)c3n2)c1 [compound 110]	0.01 to 0.1
C[C@@H](Cn1cnnn1)Oc1cccc(-c2ccn3ncc(-c4cccc(C(=O)NCCC5CCCCC5)c4)c3n2)c1 [compound 111]	0.01 to 0.1
C[C@@H](Cn1cnnn1)Oc1cccc(-c2ccn3ncc(-c4cccc(C(=O)NC5CCN(C)C(=O)C5)c4)c3n2)c1 (some centres unmarked) [compound 112]	< 0.01
C[C@@H](Cn1cnnn1)Oc1cccc(-c2ccn3ncc(-c4cccc(C(=O)NCCN5CCCC5=O)c4)c3n2)c1 [compound 113]	< 0.01
C[C@@H](Cc1nnn[nH]1)Oc1cccc(-c2ccn3ncc(-c4cccs4)c3n2)c1 [compound 114]	0.01 to 0.1
CNC(=O)c1cccc(-n2cnc3ccc(-c4ccc(F)c(O[C@@H](C)Cn5cnnn5)c4)nc32)c1 [compound 115]	< 0.01
CNC(=O)c1ccnc(-n2cnc3ccc(-c4ccc(F)c(O[C@@H](C)Cn5cnnn5)c4)nc32)c1 [compound 116]	< 0.01
CCN(CC)CCNC(=O)c1ccnc(-n2cnc3ccc(-c4ccc(F)c(O[C@@H](C)Cn5cnnn5)c4)nc32)c1 [compound 117]	< 0.01
C[C@@H](Cn1cnnn1)Oc1cc(-c2ccc3ncn(-c4cnn(C(=O)OC(C)(C)C)c4)c3n2)ccc1F [compound 118]	< 0.01
C[C@@H](Cn1cnnn1)Oc1cc(-c2ccc3ncn(-c4cn[nH]c4)c3n2)ccc1F [compound 119]	< 0.01
C[C@@H](Cn1cnnn1)Oc1cc(-c2ccc3ncn(-c4cnn(C)c4)c3n2)ccc1F [compound 120]	0.01 to 0.1
C[C@@H](Cn1cnnn1)Oc1cc(-c2ccc3ncn(-c4ccn(C)n4)c3n2)ccc1F [compound 122]	< 0.01
C[C@@H](Cn1cnnn1)Oc1cc(-c2ccn3ncc(-c4ccccc4C=O)c3n2)ccc1F [compound 123]	< 0.01
C[C@@H](Cn1cnnn1)Oc1cc(-c2ccc3ncc(-c4cn(CC(=O)OCc5ccccc5)nc4C#N)n3n2)ccc1F [compound 124]	0.01 to 0.1
C[C@@H](Cn1cnnn1)Oc1cc(-c2ccc3ncc(-c4cn(CC(=O)O)nc4C#N)n3n2)ccc1F [compound 125]	0.01 to 0.1
COCCCNC(=O)Cn1cc(-c2cnc3ccc(-c4ccc(F)c(O[C@@H](C)Cn5cnnn5)c4)nn23)c(C#N)n1 [compound 126]	> 0.1
C[C@@H](Cn1cnnn1)Oc1cc(-c2ccc3ncc(-c4cn(CC(=O)NCCN5CCOCC5)nc4C#N)n3n2)ccc1F [compound 127]	> 0.1

SMILES	IC50 [µM]
COC(=O)c1cccc(-c2cnn3ccc(-c4ccc(F)c(O[C@@H](C)Cn5cnnn5)c4)nc23)c1Cl [compound 128]	0.01 to 0.1
C[C@@H](Cn1cnnn1)Oc1cc(-c2ccn3ncc(-c4ccccc4C(F)(F)F)c3n2)ccc1F [compound 129]	> 0.1
C[C@@H](Cn1cnnn1)Oc1cc(-c2ccn3ncc(-c4cccc(C(F)(F)F)c4)c3n2)ccc1F [compound 130]	0.01 to 0.1
C[C@@H](Cn1cnnn1)Oc1cc(-c2ccn3ncc(-c4cccc(C(F)F)c4)c3n2)ccc1F [compound 131]	< 0.01
C[C@@H](Cn1cnnn1)Oc1cc(-c2ccn3ncc(-c4ccc(C(F)F)cc4)c3n2)ccc1F [compound 132]	0.01 to 0.1
C[C@@H](Cn1cnnn1)Oc1cc(-c2ccn3ncc(-c4ccccc4Cl)c3n2)ccc1F [compound 133]	0.01 to 0.1
C[C@@H](Cn1cnnn1)Oc1cc(-c2ccn3ncc(-c4cccc(Cl)c4)c3n2)ccc1F [compound 134]	< 0.01
C[C@@H](Cn1cnnn1)Oc1cc(-c2ccn3ncc(-c4ccc(Cl)cc4)c3n2)ccc1F [compound 135]	0.01 to 0.1
C[C@@H](Cn1cnnn1)Oc1cc(-c2ccn3ncc(-c4ccc(C#N)cc4)c3n2)ccc1F [compound 136]	0.01 to 0.1
C[C@@H](Cn1cnnn1)Oc1cc(-c2ccn3ncc(-c4cccnc4C#N)c3n2)ccc1F [compound 137]	< 0.01
C[C@@H](Cn1cnnn1)Oc1cc(-c2ccn3ncc(-c4cnccc4C#N)c3n2)ccc1F [compound 138]	< 0.01
C[C@@H](Cn1cnnn1)Oc1cc(-c2ccn3ncc(-c4ccc(C#N)s4)c3n2)ccc1F [compound 139]	< 0.01
COc1ccnc(-c2cnn3ccc(-c4ccc(F)c(O[C@@H](C)Cn5cnnn5)c4)nc23)c1 [compound 140]	0.01 to 0.1
Cc1ncc(-c2cnn3ccc(-c4ccc(F)c(O[C@@H](C)Cn5cnnn5)c4)nc23)s1 [compound 141]	< 0.01
Cc1nn(C)cc1-c1cnn2ccc(-c3ccc(F)c(O[C@@H](C)Cn4cnnn4)c3)nc12 [compound 142]	0.01 to 0.1
Cc1c(-c2cnn3ccc(-c4ccc(F)c(O[C@@H](C)Cn5cnnn5)c4)nc23)cnn1C [compound 143]	< 0.01
C[C@@H](Cn1cnnn1)Oc1cc(-c2ccn3ncc(-c4cnn(C(F)F)c4)c3n2)ccc1F [compound 144]	< 0.01
C[C@@H](Cn1cnnn1)Oc1cc(-c2ccn3ncc(-c4cnn(CCN5CCOCC5)c4)c3n2)ccc1F [compound 145]	0.01 to 0.1
CCOC(=O)c1ccc(C#N)c(-c2cnc3ccc(-c4ccc(F)c(O[C@@H](C)Cn5cnnn5)c4)nn23)c1 [compound 146]	< 0.01
C[C@@H](Cn1cnnn1)Oc1cc(-c2ccc3ncc(-c4cc(C(=O)O)ccc4C#N)n3n2)ccc1F [compound 147]	0.01 to 0.1
C[C@@H](Cn1cnnn1)Oc1cc(-c2ccc3ncc(-c4cc(C(=O)NCCN5CCOCC5)ccc4C#N)n3n2)ccc1F [compound 148]	0.01 to 0.1
C[C@@H](Cn1cnnn1)Oc1cc(-c2ccn3ncc(-c4ccccc4C(F)F)c3n2)ccc1F [compound 149]	0.01 to 0.1
C[C@@H](Cn1cnnn1)Oc1cc(-c2ccc3ncn(-c4ccccc4C#N)c3n2)ccc1F [compound 151]	< 0.01
COc1c(C(=O)NCCN2CCOCC2)cccc1-c1cnn2ccc(-c3ccc(F)c(O[C@@H](C)Cn4cnnn4)c3)nc12 [compound 152]	< 0.01
C[C@@H](Cn1cnnn1)Oc1cc(-c2ccc3ncn(-c4ccccn4)c3n2)ccc1F [compound 153, 2-[5-(4-fluoro-3-{[(2S)-1-(1H-tetrazol-1-yl)propan-2-yl]oxy}phenyl)-3H-imidazo[4,5-b]pyridin-3-yl]pyridine]	< 0.01
